Experimental data reported in patent US4990499A, “Anti-herpes simplex virus activity of 5-alkoxymethyl-2'-deoxycytidimes and their 5-monophosphates” (priority 1989, dated 1991).
Values after ≈ are worked out from the molar mass of the structure shown. Read-outs that look alike come from different tables or passages of the source.

Columns and labels:
[1] = test system: Herpes simplex virus type 1 (HSV-1); assay: Antiviral activity against HSV-1, viral plaque reduction (ED50); assay type: cell-based
[2] = Inhibition of proliferation (MTC), H-9 cells; assay type: cell-based; conditions: human, highest concentration tested
Protocol: (§1) Inhibitory effects of MMdCyd on the proliferation of murine and human tumor cells was also investigated. MTC for MMdCyd was greater than 400 μg/ml (highest concentration tested) against Raji, MOLT/4F, MT4, CEM and H-9 (human) and L1210 (murine Leukemia) cells.

HSV-1, KOS [3] = assay: HSV-1 KOS infectivity in Vero cells prior to washing of drugs; assay type: cell-based, Herpes simplex virus type 1; conditions: for Virus Infectivity (% of virus control): combination with H4 dUrd 530 μM
Protocol: Vero cells were infected with HSV-1, KOS strain and then treated with MMdCyd in various quantities, and also with MMdCyd in various quantities together with a constant amount of H4 dUrd. The virus infectivity was observed and the results are given in Table 5 and are shown graphically in FIG. 3.
^a Virus infectivity was scored using following parameters: rounding
of cells, plaque formation and loss of monolayer structure.
^b Concentration of H4 dUrd used was 530 μM (125 μg/ml).

Vero cells = assay: Cytotoxicity (MTC), Vero cells; assay type: cell-based; conditions: monkey
Protocol: (§2) The antiviral activity, ^a cyctotoxicity* and antiviral indices of MMdCyd in the presence of H4 dUrd, dGuo and H4 dUrd+dGuo were determined.
(§3) Minimum cytotoxic concentrations (MTC) for MMdCyd was greater than 1,000 μg/ml for RK-13, HEP-2 and Vero cells.
(§4) ^c MTC = Minimum toxic concentration concentration required to
(§5) produce definite evidence of microscopic toxicity on confluent monolayer

[4] = Cytotoxicity (MTC), Vero cells; assay type: cell-based; conditions: monkey
Protocol: as §2, §3, §4, §5

[5] = Inhibition of proliferation (MTC), L1210 cells; assay type: cell-based, murine; conditions: mouse, highest concentration tested
Protocol: as §1

[6] = Inhibition of proliferation (MTC), MOLT/4F cells; assay type: cell-based; conditions: human, highest concentration tested
Protocol: as §1

[7] = Inhibition of proliferation (MTC), CEM cells; assay type: cell-based; conditions: human, highest concentration tested
Protocol: as §1

[8] = Inhibition of proliferation (MTC), Raji cells; assay type: cell-based; conditions: human, highest concentration tested
Protocol: as §1

[9] = test system: Herpes simplex virus type 2 (HSV-2); assay: Antiviral activity against HSV-2, viral plaque reduction (ED50); assay type: cell-based; conditions: 50 PFU
Protocol: (§6) Infected cells were treated with different concentrations of MMdCyd and the concentration required to reduce viral plaque formation by 50%, i.e. ED50, was determined.
(§7) ^a ED50 : Concentration required to reduce viral plaque formatio
(§8) The antiviral activity of MMdCyd in the presence of H4 dUrd was determined against several strains of HSV-1 and HSV-2.
^a Antiviral assays were carried out using Vero cells. Virus input 50
^b ED50 : Concentration required to reduce viral plaque formatio

[10] = Cytotoxicity (MTC), HEP-2 cells; assay type: cell-based; conditions: human, read-out: minimum cytotoxic concentration (MTC)
Protocol: as §3, §4, §5

HSV-1, KOS [11] = assay: HSV-1 KOS infectivity (virus yield) in Vero cells after removal of drugs; assay type: cell-based, Herpes simplex virus type 1; conditions: for Virus Infectivity (% of virus control): after drug removal, combination with H4 dUrd 530 μM, 4320 min
Protocol: Vero cells were infected with HSV-1, KOS strain and then samples of the infected cells were treated with MMdCyd in various quantities and with MMdCyd in various quantities together with 530 μM of H4 dUrd. Cells were washed twice with 0.4 ml of MEM to remove residual drug, overlaid with growth medium and incubated for 72 h. The virus was harvested by two cycles of freezing and thawing. The culture fluid from each treatment was pooled and assayed for virus yield.
^b H4 dUrd 530 μM (125 μg/ml) was added along with MMdCyd.

[12] = test system: Herpes simplex virus type 1 (HSV-1); assay: Antiviral activity against HSV-1, viral plaque reduction (ED50); assay type: cell-based; remark: listed apart in the source
Protocol: as §6, §7
Vero cells were infected with the KOS strain of HSV-1. The compound of compounds indicated in Table 2, below, and are shown graphically in FIGS. 1, (H4 dUrd) and 2 (H4 Urd).
^a Antiviral assays were carried out using Vero cells. All compounds
were added immediately after virus infection.
as §8
Vero cells were infected with HSV-1, strain 76 and treated with MMdCyd at different times post virus infection.
as §2
^a Antiviral assays were carried out using Vero cells. Compounds were
added immediately after virus infection. Virus HSV1, strains KOS and 76;
KOS, virus input = 50 PFU

[13] = Cytotoxicity (MTC), RK-13 cells; assay type: cell-based; conditions: rabbit, read-out: minimum cytotoxic concentration (MTC)
Protocol: as §3, §4, §5

[14] = test system: Deoxynucleoside Triphosphate (dNTP) Pools in Vero Cells Infected with Herpes Simplex Virus Type 1; assay: Deoxynucleoside triphosphate (dNTP) pools in HSV-1 infected Vero cells; assay type: cell-based; conditions: Table 8, HSV-1 KOS infected Vero cells, 10 PFU/cell, treatment 7 hours, ± S.E.
Outline: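 Vero cells infected with HSV-1 KOS at 10 PFU/cell for one hour, then treated for seven hours with dGuo alone or dGuo plus H4 dUrd added right after adsorption. Intracellular dNTP pools then assayed, with untreated Vero cells as control.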

COCc1cn([C@H]2C[C@H](O)[C@@H](CO)O2)c(=O)nc1N [MMdCyd, 5-methoxymethyl-2'-deoxycytidine]
EC50 ([1]; HSV-1 76, HEP-2, 50 PFU): 22 µM
EC50 ([1]; HSV-1 (strain cell empty, under NAH), RK-13, 50 PFU): 5 µM
EC50 ([1]; HSV-1 KOS, Vero, 20 PFU, deaminase inhibitor 125 μg/ml, added immediately after infection): 12 to 17 µM
MCC [2]: > 400 µg/mL
viral infectivity, conclusion (HSV-1, KOS [3]; Example 7): reduces viral infectivity
Virus Infectivity (% of virus control) (HSV-1, KOS [3]; MMdCyd 1.6 μM): 90 % of virus control
Virus Infectivity (% of virus control) (HSV-1, KOS [3]; MMdCyd 3.2 μM): 80 % of virus control
Virus Infectivity (% of virus control) (HSV-1, KOS [3]; MMdCyd 6.4 μM): 66 % of virus control
Virus Infectivity (% of virus control) (HSV-1, KOS [3]; MMdCyd 12.8 μM): 64 % of virus control
Virus Infectivity (% of virus control) (HSV-1, KOS [3]; MMdCyd 25.6 μM): 45 % of virus control
Virus Infectivity (% of virus control) (HSV-1, KOS [3]; MMdCyd 51.2 μM): 32 % of virus control
Virus Infectivity (% of virus control) (HSV-1, KOS [3]; MMdCyd 104 μM): 20 % of virus control
Virus Infectivity (% of virus control) (HSV-1, KOS [3]; MMdCyd 208 μM): 9 % of virus control
Virus Infectivity (% of virus control) (HSV-1, KOS [3]; MMdCyd 416 μM): 0 % of virus control
Virus Infectivity (% of virus control) (HSV-1, KOS [3]; MMdCyd 832 μM): 0 % of virus control
production of infectious virus particles (HSV-1, KOS [3]; combination: MMdCyd >12 μM with H4 dUrd (printed 530 M)): significantly decreased
MTC (minimum toxic concentration) (Vero cells): > 1,000 μg/ml
MCC [4]: > 1000 µg/mL
MCC [5]: > 400 µg/mL
MCC [6]: > 400 µg/mL
MCC [7]: > 400 µg/mL
MCC [8]: > 400 µg/mL
EC50 ([9]; HSV-2 333, Vero): 175 µM
EC50 ([9]; HSV-2 MS, Vero): 228 µM
EC50 ([9]; HSV-2 X-265, Vero): 130 µM
MCC [10]: > 1000 µg/mL
effectiveness against the virus, conclusion (HSV-1, KOS [11]; Example 8): effective against the virus
Virus Infectivity (% of virus control) (HSV-1, KOS [11]; MMdCyd 1.6 μM): 100 % of virus control
Virus Infectivity (% of virus control) (HSV-1, KOS [11]; MMdCyd 3.2 μM): 99 % of virus control
Virus Infectivity (% of virus control) (HSV-1, KOS [11]; MMdCyd 6.4 μM): 99 % of virus control
Virus Infectivity (% of virus control) (HSV-1, KOS [11]; MMdCyd 12.8 μM): 99 % of virus control
Virus Infectivity (% of virus control) (HSV-1, KOS [11]; MMdCyd 25.6 μM): 99 % of virus control
Virus Infectivity (% of virus control) (HSV-1, KOS [11]; MMdCyd 51.2 μM): 70 % of virus control
Virus Infectivity (% of virus control) (HSV-1, KOS [11]; MMdCyd 104 μM): 55 % of virus control
Virus Infectivity (% of virus control) (HSV-1, KOS [11]; MMdCyd 208 μM): 40 % of virus control
Virus Infectivity (% of virus control) (HSV-1, KOS [11]; MMdCyd 416 μM): 20 % of virus control
Virus Infectivity (% of virus control) (HSV-1, KOS [11]; MMdCyd 832 μM): 10 % of virus control
virus infectivity after washing of drugs (HSV-1, KOS [11]; less than 26 μM MMdCyd): no decrease in virus infectivity
ED50 [12]: 6 to 12 µg/mL
ED50 ([12]; FIG. 6, after preincubating cells 3 hours with 25 μm dUrd, then washing): 21 µg/mL (≈ 77.4 µM)
ED50 ([12]; FIG. 6, with 25 μM dUrd added simultaneously): 38 µg/mL (≈ 140 µM)
EC50 ([12]; HSV-1 76, Vero, 50 PFU, added 4 hours post infection, read-out: ED50 (the source's name)): 28 µM
EC50 ([12]; HSV-1 76, Vero, 50 PFU, added 6 hours post infection, read-out: ED50 (the source's name)): 32 µM
EC50 ([12]; HSV-1 (strain cell empty, under NAH), RK-13, 10 PFU, read-out: ED50 (the source's name)): 3 µM
EC50 ([12]; HSV-1, Vero and HEP-2 cells, read-out: ED50 (the source's name)): 14 to 26 µM
EC50 ([12]; HSV-1 KOS, Vero, 20 PFU, read-out: ED50 (the source's name)): 14 µM
EC50 ([12]; HSV-1 KOS, Vero, 50 PFU, read-out: ED50 (the source's name)): 26 µM
EC50 ([12]; HSV-1 NAH, Vero, 50 PFU, read-out: ED50 (the source's name)): 66 µM
activity against thymidine kinase negative strain ([12]; HSV--TK^-): lack of activity
ED50, average value ([12]; Table 11, Vero, HSV-1 KOS and 76, 50-100 PFU, H4 dUrd 12 μg/ml, dGuo 25-30 μg/ml, average): 8 µg/mL (≈ 29.5 µM)
A.I (antiviral index, MTC divided by ED50) ([12]; monkey, vero cells): > 125
EC50 ([12]; read-out: ED50, HSV-1 TK, Vero, 10 PFU, highest concentration tested): > 833 µM
EC50 ([12]; read-out: ED50, HSV-1 TK, Vero, 50 PFU, highest concentration tested): > 833 µM
antiherpes activity ([12]; summary statement): potent and selective antiherpes agent
ED50 on delayed treatment compared with one hour post virus infection ([12]; treatment delayed 4 to 6 hours post infection): essentially similar
MCC [13]: > 1000 µg/mL
dATP pool [14]: 25.2 ± 0.49 .rho.moles/10^6 cells
dCTP pool [14]: 29.6 ± 1.85 .rho.moles/10^6 cells
dGTP pool [14]: 72.6 ± 2.07 .rho.moles/10^6 cells
dTTP pool [14]: 1072 ± 11.2 .rho.moles/10^6 cells
